US4156017A, “Pesticides” (Schering Aktiengesellschaft, priority 1977, dated 1979)
Read-outs that look alike come from different tables or passages of the source.

How the values were obtained:
cabbage moth eggs = assay: prevention of hatching of cabbage moth eggs (immersion, evaluation four days after treatment); format: in vivo; conditions: Mamestra brassicae, 96 h; for inhibition at 0.1 % / inhibition at 1 %: read-out: prevention of hatching
Protocol: (§1) The compounds to be used according to the invention were used as aqueous solutions of the salts or as aqueous emulsions of the bases formulated as emulsion concentrates at the desired concentration. The same procedure was followed with the comparison agents trans-2-phenylcyclopropyl aminosulfate and 1-isonicotinyl-2-isopropyl hydrazine phosphate; in the case of isonicotinic acid-2-[2-(benzylcarbamoyl)-ethyl]-hydrazide, the compound was dissolved in acetone and diluted to the desired concentration with water.
The criterion for the evaluation of action was the percentual prevention of hatching in comparison with untreated eggs.

[1] = test system: Egyptian cotton moth eggs; assay: prevention of hatching of Egyptian cotton moth eggs (immersion, evaluation four days after treatment); format: in vivo, Spodoptera littoratis (Egyptian cotton moth); conditions: 96 h
Protocol: as §1, with “were” for “were used as”, “or” for “or as”, “baes” for “bases”, “acid-2-[2-(benzylcarbamoyl)-ethyl]hydrazide,” for “acid-2-[2-(benzylcarbamoyl)-ethyl]-hydrazide,”, “diluted with water” for “diluted”, “concentration.” for “concentration with water.”
The criterion for evaluation of the action was the percentual prevention of batching in comparison with untreated eggs.

monoamino-oxidase = conditions: generally known; cited from earlier work
[2] = acute oral toxicity, mouse; conditions: in vivo, mouse p.o.
[3] = test system: cabbage moth (Plutella maculipennis); assay: feed damage on sprayed potted mustard seedlings bearing eggs of the cabbage moth (Plutella maculipennis); format: in vivo; conditions: vs untreated plants, 7 days
Source text: The compounds to be used according to the invention were used as aqueous solutions of the salts or as aqueous emulsions of the bases formulated as emulsion concentrates at the desired concentration. The same procedure was followed for the comparison agents trans-2-phenylcyclopropyl aminosulfate and 1-isonicotinyl-2-isopropyl hydrazine phosphate.
After the treatment the pots were set up in aerated glass cylinders for seven days.
The criterion for evaluation of the action was feed damage on the treated plants in comparison with the feed damage on untreated plants.

[4] = substance concentration 0.1%, vs untreated eggs, 4 days
[5] = substance concentration 0.04 (head "(5)"), vs untreated eggs, 4 days, read-out: prevention of hatching
[6] = read-out: prevention of batching
[7] = substance concentration 1.0%, vs untreated eggs, 4 days
[8] = substance concentration 1.0 (head "(5)"), vs untreated eggs, 4 days, read-out: prevention of hatching
[9] = substance concentration 0.1 (head "(5)"), vs untreated eggs, 4 days, read-out: prevention of hatching

C#CCN(C)Cc1ccccc1Cl [Compound 10, 2-Chlorobenzyl-methyl-2-propinyl-ammonium chloride]
inhibition at 0.1 % (cabbage moth eggs; [4]): 100%
inhibition at 0.04 % [1, 5]: 80%

C#CCN(C)Cc1cccc(OC)c1 [Compound 13, 3-Methoxybenzyl-methyl-2-propinyl-ammonium chloride]
inhibition at 0.04 % [1, 5]: 70%

C#CCN(C)Cc1ccccc1 [Compound 9, Benzyl-methyl-2-propinyl-ammonium-chloride]
inhibition at 0.1 % [1, 6]: 100%

C#CCN(C)Cc1ccccc1 [Compound 3, N-Benzyl-N-methyl-2-propinylamine]
inhibition of monoamino-oxidase (monoamino-oxidase): inhibitors of monoamino-oxidase
LD50 [2]: 700 mg/kg
feed damage ([3]; substance concentration 0.05%): 0%
inhibition at 0.1 % (cabbage moth eggs): 100%
inhibition at 0.04 % [1, 6]: 100%

C#CCN(C)Cc1ccc(Cl)c(Cl)c1 [Compound 6, N-(3,4-dichlorobenzyl)-N-methyl-2-propinylamine]
inhibition at 0.04 % [1, 5]: 100%

O=C(CCNNC(=O)c1ccncc1)NCc1ccccc1 [Isonicotinic acid-2-[2-(benzylcarbamoyl)-ethyl]-hydrazide, reference compound]
inhibition of monoamino-oxidase (monoamino-oxidase): inhibitors of monoamino-oxidase
inhibition at 1 % (cabbage moth eggs; [7]): 0%
inhibition at 1 % [1, 8]: 0%

C#CCN(C)Cc1cccc(Cl)c1 [Compound 5, N-(3-chlorobenzyl)-N-methyl-2-propinylamine]
inhibition at 0.1 % [1, 9]: 100%

C#CCN(C)Cc1ccc(Cl)cc1 [Compound 2, 4-Chlorobenzyl-methyl-2-propinyl ammonium chloride]
inhibition at 0.1 % [1, 9]: 100%

C#CCN(C)Cc1ccc(Cl)cc1 [Compound 1, N-(4-chlorobenzyl)-N-methyl-2-propinylamine]
feed damage ([3]; substance concentration 0.05%): 0%
inhibition at 0.06 % (cabbage moth eggs; substance concentration 0.06%, vs untreated eggs, 4 days): 100%
inhibition at 0.02 % ([1]; substance concentration 0.02 (head "(5)"), vs untreated eggs, 4 days): 100%

C#CCN(C)Cc1ccc(Cl)cc1Cl [Compound 7, N-(2,4-dichlorobenzyl)-N-methyl-2-propinylamine]
inhibition at 0.1 % (cabbage moth eggs; [4]): 100%
inhibition at 0.04 % [1, 5]: 100%

CC(C)NNC(=O)c1ccncc1 [1-isonicotinyl-2-isopropylhydrazine phosphate, reference compound]
inhibition of monoamino-oxidase (monoamino-oxidase): inhibitors of monoamino-oxidase
feed damage ([3]; substance concentration 0.1%): 100%
inhibition at 1 % (cabbage moth eggs; [7]): 0%
inhibition at 1 % [1, 8]: 0%

C#CCN(C)Cc1ccc(Cl)c(Cl)c1 [Compound 14, 3,4-Dichlorobenzyl-methyl-2-propinyl-ammonium chloride]
feed damage ([3]; substance concentration 0.05%): 0%
inhibition at 0.08 % (cabbage moth eggs; substance concentration 0.08%, vs untreated eggs, 4 days): 100%

C#CCN(C)Cc1ccc(Cl)cc1Cl [Compound 12, 2,4-Dichlorobenzyl-methyl-2-propinyl-ammonium chloride]
inhibition at 0.1 % [1, 9]: 100%

C#CCN(C)Cc1cccc(OC)c1 [Compound 8, N-(3-methoxybenzyl)-N-methyl-2-propinylamine]
inhibition at 0.1 % [1, 9]: 100%

N[C@@H]1C[C@H]1c1ccccc1.O=S(=O)(O)O (relative stereo) [trans-2-Phenylcyclopropyl aminosulfate, trans-2-phenylcyclopropylamine sulfate, reference compound]
inhibition of monoamino-oxidase (monoamino-oxidase): inhibitors of monoamino-oxidase
feed damage ([3]; substance concentration 0.1%): 100%
inhibition at 1 % (cabbage moth eggs): 0%
inhibition at 1 % [1, 6]: 0%

C#CCN(C)Cc1ccccc1Cl [Compound 4, N-(2-chlorobenzyl)-N-methyl-2-propinylamine]
LD50 [2]: 305 mg/kg
inhibition at 0.1 % [1, 9]: 100%
